The results in this text go back to patent US6821980B1, “Substituted 5-benzyl-2,4-diaminopyrimidines” (Basilea Pharmaceutica AG, priority 1999, dated 2004).

For experiment [1], the target named is T1, purified DHFR of strain Sp1/1 of Streptococcus pneumoniae (Streptococcus pneumoniae serotype 4, UniProt Q54801).
T1 sequence (Q54801 1-168 I100L): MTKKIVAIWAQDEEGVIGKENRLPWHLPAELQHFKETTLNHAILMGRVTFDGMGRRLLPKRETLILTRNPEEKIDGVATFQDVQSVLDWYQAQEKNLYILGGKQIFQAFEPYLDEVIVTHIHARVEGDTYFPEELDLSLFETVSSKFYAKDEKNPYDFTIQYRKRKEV
In kind it is biochemical. As to conditions: IC50 against purified DHFR of strain Sp1/1.

Experiment [2] deals with Staphylococcus aureus 101. As to the kind of experiment: MIC against Staphylococcus aureus 101. In kind it is cell-based. As to conditions: Staphylococcus aureus 101, MRSA- and trimethoprim-resistant, clinical isolate; for MIC: read-out: MIC Sa101.
In experiment [3] the test system is Streptococcus pneumoniae 1/1. Put plainly: MIC against Streptococcus pneumoniae 1/1. Conditions: Streptococcus pneumoniae 1/1, trimethoprim- and penicillin-resistant, serotype 6, clinical isolate; for MIC: read-out: MIC Sp1/1. In kind it is cell-based.
Experiment [4] has as its target purified DHFR of strain 157/4696 of Staphylococcus aureus (Staphylococcus aureus, UniProt P13955). As to the kind of experiment: biochemical.
[5] abbreviates: Table 2, IC50 against purified DHFR of strain 157/4696 (highly trimethoprim-resistant; clinical isolate), read-out: DHFR Sa1.

≈ marks a conversion by molar mass, not a printed value. Like-named read-outs stand apart in the source and are kept apart here.

purified DHFR of strain 157/4696 of Staphylococcus aureus, sequence (P13955 whole entry): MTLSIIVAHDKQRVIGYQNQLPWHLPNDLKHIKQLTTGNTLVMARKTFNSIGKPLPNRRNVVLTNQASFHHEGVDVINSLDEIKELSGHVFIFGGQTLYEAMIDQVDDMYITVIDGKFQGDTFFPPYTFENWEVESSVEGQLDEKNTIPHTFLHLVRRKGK

For the compound `CCOc1cc(Cc2cnc(N)nc2N)cc(OS(=O)(=O)CC2CC2)c1-c1ccc(N)c(F)c1` [Example 38-b, Cyclopropylmethane-sulphonic acid 4′-amino-4-(2,4-diamino-pyrimidin-5-ylmethyl)-6-ethoxy-3′-fluoro-4-ylmethyl-biphenyl-2-yl ester], the IC50 in experiment [1] (Table 2) turned out to be 0.0065 µM; in experiment [4] (setting [5]) it was 0.22 µM. Also, the “MIC Sa101” value in experiment [2] (Table 2) turned out to be 2 µg/mL (≈ 4.1 µM). In addition, the “MIC Sp1/1” value in experiment [3] (Table 2) came to 1 µg/mL (≈ 2.05 µM).
`CCOc1cc(Cc2cnc(N)nc2N)cc(OS(=O)(=O)CC2CC2)c1-c1ccc(N)c(C)c1` [Example 38-c, Cyclopropylmethane-sulphonic acid 4′-amino-4-(2,4-diamino-pyrimidin-5-ylmethyl)-6-ethoxg-3′-methyl-biphenyl-2-yl ester]: the results for the IC50 in experiment [1] (Table 2) and in experiment [4] were 0.0058 µM and 0.19 µM, respectively. Moreover, the MIC amounted to 2 µg/mL (≈ 4.14 µM) in experiment [2] (Table 2) and 0.5 µg/mL (≈ 1.03 µM) in experiment [3] (Table 2).
Regarding `CCOc1cc(Cc2cnc(N)nc2N)cc(OS(=O)(=O)CC2CC2)c1-c1ccc(CN2CCOCC2)c(N)c1` [Example 38-d, Cyclopropylmethane-sulphonic acid 3′-amino-4-(2,4-diamino-pyrimidin-5-ylmethyl)-6-ethoxy-4′-morpholinemethyl-biphenyl-2-yl ester], the results for the IC50 in experiment [1] (Table 2) and in experiment [4] (setting [5]) were 0.0032 µM and 0.24 µM, respectively. Also, the “MIC Sa101” value in experiment [2] (Table 2) was determined as 4 µg/mL (≈ 7.03 µM). In addition, in experiment [3] (Table 2), the “MIC Sp1/1” value worked out at 1 µg/mL (≈ 1.76 µM).
For the compound `CCOc1cc(Cc2cnc(N)nc2N)cc(OS(=O)(=O)CC(C)(C)OC)c1-c1cccc(N)c1` [Example 39-a, (2-Methoxy-2-methyl-propane)-1-sulphonic acid 3′-amino-4-(2,4-diamino-pyrimidin-5-ylmethyl)-6-ethoxy-biphenyl-2-yl ester], the IC50 in experiment [1] (Table 2) was determined as 0.0042 µM; in experiment [4], 0.39 µM. The MIC in experiment [2] (Table 2) turned out to be 4 µg/mL (≈ 7.97 µM); in experiment [3] (Table 2), 1 µg/mL (≈ 1.99 µM).
Taken in the same sequence, the figures for `CCOc1cc(Cc2cnc(N)nc2N)cc(OS(=O)(=O)CC(C)(C)OC)c1-c1ccc(N)c(C)c1` [Example 39-b, (2-Methoxy-2-methyl-propane)-1-sulphonic acid 4′-amino-4-(2,4-diamino-pyrimidin-5-ylmethyl)-6-ethoxy-3′-methyl-biphenyl-2-yl ester] were 0.0049 µM, 0.25 µM, 4 µg/mL (≈ 7.76 µM) and 0.5 µg/mL (≈ 0.97 µM).
In the case of `CCOc1cc(Cc2cnc(N)nc2N)cc(OS(=O)(=O)CC(C)(C)OC)c1-c1ccc(N)c(F)c1` [Example 39-c, (2-Methoxg-2-methyl-propane)-1-sulphonic acid 4′-amino-4-(2,4-diamino-pyrimidin-5-ylmethyl)-6-ethoxy-3′-fluoro-4-ylmethyl-biphenyl-2-yl ester], the results for the IC50 in experiment [1] (Table 2) and in experiment [4] (setting [5]) were 0.014 µM and 1 µM, respectively. The “MIC Sa101” value in experiment [2] (Table 2) worked out at 8 µg/mL (≈ 15.4 µM). In addition, the “MIC Sp1/1” value in experiment [3] (Table 2) is 1 µg/mL (≈ 1.92 µM).
Taken in the same sequence, the figures for `CCOc1cc(Cc2cnc(N)nc2N)cc(OS(=O)(=O)CC(C)(C)OC)c1-c1ccc(CN2CCOCC2)c(N)c1` [Example 39-d, (2-Methoxy-2-methyl-propane)-1-sulphonic acid 3′-amino-4-(2,4-diamino-pyrimidin-5-ylmethyl)-6-ethoxy-4′-morpholinemethyl-biphenyl-2-yl ester] were 0.0026 µM, 0.41 µM, 8 µg/mL (≈ 13.3 µM) and 2 µg/mL (≈ 3.33 µM).
For `CCOc1cc(Cc2cnc(N)nc2N)cc(OS(=O)(=O)C2CCC2)c1-c1cccc(N)c1` [Example 40-a, Cyclobutane-sulphonic acid 3′-amino-4-(2,4-diamino-pyrimidin-5-ylmethyl)-6-ethoxy-biphenyl-2-yl ester], the IC50 amounted to 0.0065 µM in experiment [1] (Table 2) and 0.052 µM in experiment [4]. For the same compound, the MIC in experiment [2] (Table 2) worked out at 2 µg/mL (≈ 4.26 µM); in experiment [3] (Table 2), 1 µg/mL (≈ 2.13 µM).
`CCOc1cc(Cc2cnc(N)nc2N)cc(OS(=O)(=O)C2CCC2)c1-c1ccc(N)c(F)c1` [Example 40-b, Cylobutane-sulphonic acid 4′-amino-4-(2,4-diamino-pyrimidin-5-ylmethyl)-6-ethoxy-3′-fluoro-4-ylmethyl-biphenyl-2-yl ester]: the IC50 in experiment [1] (Table 2) amounted to 0.027 µM; in experiment [4] (setting [5]) it was 0.31 µM. Besides, the “MIC Sa101” value in experiment [2] (Table 2) came out at 2 µg/mL (≈ 4.1 µM). In experiment [3] (Table 2), the “MIC Sp1/1” value came to 1 µg/mL (≈ 2.05 µM).
For `CCOc1cc(Cc2cnc(N)nc2N)cc(OS(=O)(=O)C2CCC2)c1-c1ccc(CN2CCOCC2)c(N)c1` [Example 40-d, Cyclobutane-sulphonic acid 3′-amino-4-(2,4-diamino-pyrimidin-5-ylmethyl)-6-ethoxy-4′-morpholinomethyl-biphenyl-2-yl ester], the figures for the IC50 in experiment [1] (Table 2) and in experiment [4] were 0.017 µM and 0.13 µM, respectively. Besides, the MIC in experiment [2] (Table 2) and in experiment [3] (Table 2) was 2 µg/mL (≈ 3.52 µM) in each case.
In the case of `CCOc1cc(Cc2cnc(N)nc2N)cc(OS(=O)(=O)C2CCC2)c1-c1cc(N)cc(F)c1` [Example 40-e, Cyclobutane-sulphonic acid 3′-amino-4-(2,4-diamino-pyrimidin-5-ylmethyl)-6-ethoxy-5′-fluoro-biphenyl-2-yl ester], the IC50 in experiment [1] (Table 2) turned out to be 0.079 µM; in experiment [4] it was 0.16 µM. The MIC in experiment [2] (Table 2) and in experiment [3] (Table 2) was 2 µg/mL (≈ 4.1 µM) each time.
For `CCOc1cc(Cc2cnc(N)nc2N)cc(OS(=O)(=O)C2CCC2)c1-c1ccc(N)c(C)c1` [Example 40c, Cyclobutane-sulphonic acid 4′-amino-4-(2,4-diamino-pyrimidin-5-ymethyl)-6-ethoxy-3′-methyl-biphenyl-2-yl ester], the values for the IC50 in experiment [1] (Table 1) and in experiment [4] were 0.019 µM and 0.037 µM, respectively. In addition, the MIC in experiment [2] (Table 1) stood at 1 µg/mL (≈ 2.07 µM); in experiment [3] (Table 1), 0.5 µg/mL (≈ 1.03 µM).
Regarding `CCOc1cc(Cc2cnc(N)nc2N)cc(OS(=O)(=O)C2CCOCC2)c1-c1ccc(N)c(C)c1` [Example 41-a, Tetrahydropyran-4-sulphonic acid 4′-amino-4-(2,4-diamino-pyrimidin-5-ylmethyl)-6-ethoxy-3′-methyl-biphenyl-2-yl ester], the IC50 in experiment [1] (Table 2) was determined as 0.0003 µM; in experiment [4], 0.055 µM. Besides, the MIC in experiment [2] (Table 2) is 2 µg/mL (≈ 3.89 µM); in experiment [3] (Table 2), 0.5 µg/mL (≈ 0.973 µM).
For `CCOc1cc(Cc2cnc(N)nc2N)cc(OS(=O)(=O)C2CCOCC2)c1-c1ccc(N)c(F)c1` [Example 41-b, Tetrahydronyran-4-sulphonic acid 4′-amino-4-(2,4-diamino-pyrimidin-5-ylmethyl)-6-ethoxy-3′-fluoro-biphenyl-2-yl ester] the same measures were 0.0062 µM, 0.25 µM, 4 µg/mL (≈ 7.73 µM) and 0.5 µg/mL (≈ 0.966 µM).
As for `CCOc1cc(Cc2cnc(N)nc2N)cc(OS(=O)(=O)C2CCOCC2)c1-c1cccc(N)c1` [Example 41-c, Tetrahydropyran-4-sulphonic acid 3′-amino-4-(2,4-diamino-pyrimidin-5-ylmethyl)-6-ethoxy-biphenyl-2-yl ester], the IC50 in experiment [1] (Table 2) came to 0.0042 µM; in experiment [4], 0.043 µM. In addition, the MIC in experiment [2] (Table 2) was 4 µg/mL (≈ 8.01 µM); in experiment [3] (Table 2), 0.5 µg/mL (≈ 1 µM).
Taken in the same sequence, the figures for `CCOc1cc(Cc2cnc(N)nc2N)cc(OS(=O)(=O)CC2CCCO2)c1-c1cccc(N)c1` (centres unmarked) [Example 42-a, Tetrahydrofuran-2-yl-methanesulphonic acid 3′-amino-4-(2,4-diamino-pyrimidin-5-ylmethyl)-6-ethoxy-biphenyl-2-yl ester] were 0.0057 µM, 0.25 µM, 8 µg/mL (≈ 16 µM) and 2 µg/mL (≈ 4 µM).
In the case of `CCOc1cc(Cc2cnc(N)nc2N)cc(OS(=O)(=O)CC2CCCO2)c1-c1ccc(N)c(F)c1` (centres unmarked) [Example 42-b, Tetrahydrofuran-2-yl-methanesulphonic acid 4′-amino-4-(2,4-diamino-primidin-5-ylmethyl)-6-ethoxy-3′-fluoro-biphenAl-2-yl ester], the IC50 in experiment [1] (Table 2) is 0.0076 µM; in experiment [4] it was 0.51 µM. Also, the MIC turned out to be 8 µg/mL (≈ 15.5 µM) in experiment [2] (Table 2) and 2 µg/mL (≈ 3.86 µM) in experiment [3] (Table 2).
Taken in the same sequence, the figures for `CCOc1cc(Cc2cnc(N)nc2N)cc(OS(=O)(=O)CC2CCCO2)c1-c1ccc(N)c(C)c1` (centres unmarked) [Example 42-c, Tetrahydrofuran-2-yl-methanesulphonic acid 4′-amino-4-(2,4-diamino-pyrimidin-5-ylmethyl)-6-ethoxy-3′-methyl-biphenyl-2-yl ester] were 0.0063 µM, 0.3 µM, 8 µg/mL (≈ 15.6 µM) and 1 µg/mL (≈ 1.95 µM).
Taken in the same sequence, the figures for `CCOc1cc(Cc2cnc(N)nc2N)cc(OS(=O)(=O)N(C)C)c1-c1ccc(SC)cc1` [Example 43-a, Dimethylsulphamic acid 4-(2,4-diamino-pyrimidin-5-ylmethyl)-6-ethoxy-4′-methylsulphanyl-biphenyl-2-yl ester] were 0.0067 µM, 0.32 µM, 2 µg/mL (≈ 4.08 µM) and 4 µg/mL (≈ 8.17 µM).
Taken in the same sequence, the figures for `CCOc1cc(Cc2cnc(N)nc2N)cc(OS(=O)(=O)N(C)C)c1-c1ccccc1` [Example 43-b, Dimethylsulphamic acid 4-(2,4-diamino-pyrimidin-5-ylmethyl)-6-ethoxy-biphenyl-2-yl ester] were 0.0098 µM, 0.26 µM, 1 µg/mL (≈ 2.25 µM) and 1 µg/mL (≈ 2.25 µM).
